Measured values from US10709727B2, “Antiviral drugs” (priority 2015, dated 2020).

Test system: influenza virus (WSN strain)
Assay type: cell-based

In the case of “DOCK11 #2: lentivirus-expressed shRNA against DOCK11 gene, SEQ ID NO: 2, used in Examples 3, 4, 6, 8, 12 (guide CCGGGTACTAGACACCATATCATTTCTCGAGAAATGATATGGTGTCTAGTACTTTTTG)”, the “localization of nucleoproteins of influenza virus in the nucleus of the host cell” value is reported as “suppressed”.
